Assays:
dogs = conditions: intravenal administration to dogs; cited from earlier work
rats [1] = conditions: oral administration to rats; cited from earlier work
rats [2] = conditions: oral administration to rats; cited from earlier work; remark: listed apart in the source

SMILES | melting point | further results
COc1ccc(C2(CCN(C)C)Cc3ccccc3C(=O)O2)cc1.Cl (centres unmarked) | > 250 °C (dec.) | –
CN(C)CCC1(c2ccccc2)Cc2ccccc2CO1 (centres unmarked) [3-(2-dimethylamino-ethyl)-3-(phenyl)-isochroman] | – | anti-hypertensive activity (dogs): anti-hypertensive activity
CN(C)CCC1(c2ccccc2)Cc2ccccc2C(=O)O1 (centres unmarked) [3-(2-dimethylamino-ethyl)-3,4-dihydro-3-phenyl-isocoumarin] | – | diuretic action (rats [1]): diuretics; anti-hypertensive activity (dogs): anti-hypertensive activity
CN(C)CCC1(c2cccc(Cl)c2)Cc2ccccc2C(=O)O1.Cl (centres unmarked) | > 250 °C (dec.) | –
COc1cccc(C2(CCN(C)C)Cc3ccccc3C(=O)O2)c1.Cl (centres unmarked) | > 250 °C (dec.) | –
Cl.O=C1OC(CCN2CCCCC2)(c2ccc(Cl)cc2)Cc2ccccc21 (centres unmarked) | > 250 °C (dec.) | –
CC(CN(C)C)C1(c2ccccc2)Cc2ccccc2C(=O)O1 (centres unmarked) [3-(2-dimethylamino-(1-methyl-ethyl))-3,4-dihydro-3-phenyl-isocoumarin] | – | antihypertensive action (rats [2]): ineffective; diuretic action (rats [1]): diuretics
Cc1ccc2c(c1)C(=O)OC(CCN(C)C)(c1ccccc1)C2.Cl (centres unmarked) | > 250 °C (dec.) | –
CN1CCN(CCC2(c3ccc(Cl)cc3)Cc3ccccc3C(=O)O2)CC1.Cl (centres unmarked) | > 250 °C (dec.) | –
COc1ccc(C2(CCN(C)C)Cc3ccccc3C(=O)O2)cc1 (centres unmarked) [3-(2-dimethylamino-ethyl)-3,4-dihydro-3-(p-methoxy-phenyl)-isocoumarin] | – | diuretic action (rats [1]): diuretics; anti-hypertensive activity (dogs): anti-hypertensive activity
Cl.O=C1OC(CCN2CCCC2)(c2ccc(Cl)cc2)Cc2ccccc21 (centres unmarked) | > 250 °C (dec.) | –
CC1c2ccccc2C(=O)OC1(CCN(C)C)c1ccc(Cl)cc1.Cl (centres unmarked) | > 250 °C (dec.) | –

Now from value to compound, other results behind:

melting point | SMILES | further results
> 250 °C (dec.) | Cc1cccc2c1C(=O)OC(CCN(C)C)(c1ccc(Cl)cc1)C2.Cl (centres unmarked) | –
> 250 °C (dec.) | CN(C)CCC1(c2cccc(F)c2)Cc2ccccc2C(=O)O1.Cl (centres unmarked) | –
> 250 °C (dec.) | COc1ccccc1C1(CCN(C)C)Cc2ccccc2C(=O)O1.Cl (centres unmarked) | –
> 250 °C (dec.) | CCN(CC)CCC1(c2ccc(Cl)cc2)Cc2ccccc2C(=O)O1.Cl (centres unmarked) | –
> 250 °C (dec.) | CN(C)CCCC1(c2ccc(Cl)cc2)Cc2ccccc2C(=O)O1.Cl (centres unmarked) | –
245.2 to 246.3 °C (dec.) | CN(C)CCC1(c2ccc(Oc3ccccc3)cc2)Cc2ccccc2C(=O)O1.Cl (centres unmarked) | –
> 250 °C (dec.) | CN(C)CCC1(c2cccs2)Cc2ccccc2C(=O)O1.Cl (centres unmarked) | –
> 250 °C (dec.) | CN(C)CCC1(c2ccccc2)Cc2ccccc2C(=O)O1.Cl (centres unmarked) | –
> 250 °C (dec.) | CN(C)CCC1(c2ccccc2Cl)Cc2ccccc2C(=O)O1.Cl (centres unmarked) | –
> 250 °C (dec.) | COc1cccc2c1CC(CCN(C)C)(c1ccccc1)OC2=O.Cl (centres unmarked) | –
> 250 °C (dec.) | Cc1cccc2c1CC(CCN(C)C)(c1ccccc1)OC2=O.Cl (centres unmarked) | –

Reference: patent publication US20060058374A1, “Urotensin II receptor agents” (priority 2002, published 2006)
